# Measured values: patent US6177405A, “Cyclic analogs of tuftsin” (priority 1992, dated 2001)
# Residues, ends and D or L forms follow the SMILES beside them.
# Legend:
# Type in all cases: cell-based
# human NK cells = assay: Tumor cell cytotoxicity assay by human NK cells (4 hour 51Cr release, K-562 targets); conditions: effector:target ratios of 25:1 and 50:1, peptide concentration 1 μg/ml, FIG. 3
# Protocol: Tumor Cell Cytotoxicity Assay by Human NK Cells
# Heparinized blood was layered over Leukoprep tube (30 ml per tube), and centrifuged. The mononuclear cells at interphase were collected, washed with HBSS, suspended in RPMI-1640 medium with 10% FBS (15 ml per 30 ml starting blood), plated on Petri dishes, and incubated for 1 hour. Non-adherent cells were collected, suspended in RPMI-1640 medium with 5% FBS, and adjusted to 1×10^6 /ml for 4 hour ^51 Cr release assay. The viability of this NK cell enriched fraction was assessed with trypan blue.
# The tumor target cells, K-562, were harvested from culture, washed with RPMI-1640 medium with 5% FBS, and centrifuged. Pelleted cells of 2×10^6 K-562 were suspended into 0.2 ml of 100 μCi of ^51 CrO4 in saline, and labelled for 90 min in the incubator. The labelled target cells were washed with RPMI-1640 medium with 5% FBS, suspended in the same medium, and adjusted to a suspension of 2×10^5 /ml. […] Filters containing radioactive supernatants were counted on a γ counter, and counts per minutes (cpm) were recorded. Percent cytotoxicity (% specific lysis) was calculated by the following formula: […]
# Spontaneous cpm was obtained by incubating the tumor target cells alone in the medium. Maximum cpm was obtained by releasing the radioactivity from the target cells by treatment with Triton X-100. […]
# [1] = test system: Human polymorphonuclear leukocytes (PMNs); assay: Phagocytosis assay (fluorescent microspheres engulfed per PMN)
# Protocol: Phagocytosis Assay Human polymorphonuclear leukocytes (PMNs) were prepared from venous blood of healthy donors. Heparinized blood was mixed with dextran and kept at 37° C. for 1 hour. The leukocyte-rich plasma was collected and centrifuged. The resulting pellet was washed with Hank's balanced salt solution (HBSS). The pellet was then suspended into HBSS, layered over Lymphocyte Separation Medium (LSM) and centrifuged. The sedimented cells were washed with HBSS. Contaminant erythrocytes were lysed by suspending the cells in sterile water for 15 seconds. The isotonicity was then restored by adding 10× HBSS. After centrifuging, the PMNs were washed with HBSS, suspended in the same medium, counted, and adjusted to 1×10^6 viable cells/ml (viability>95% by trypan blue dye exclusion). Cells (0.5×10^6 /well) were plated in 24 well plate and placed in a 37° C. CO2 incubator for 30 min to form a monolayer. Thereafter the supernatant was aspirated. Tuftsin or analog in 250 μl HBSS and 2.5×10^7 fluorescent microspheres (2 μm diameter) in 250 μl HBSS, were added to each well resulting in a particle to PMN ratio of 50:1, mixed, and incubated for 15 min. The supernatant was then quickly aspirated and each well washed with HBSS. One ml of trypsin (0.25% in saline) was added to each well and the plate incubated for 15 min to detach the cells and remove non-engulfed particles associated on the surface of PMN. The cells were transferred, layered over 2 ml fetal bovine serum (FBS), and centrifuged. The supernatant containing free particles were removed. The cell pellet was suspended, fixed in 2% paraformaldehyde, and plated again into a well. After 10 min, particles engulfed per PMN were counted under a microscope (100 cells per well). The mean values from triplicates were used to calculate percent phagocytosis increase over control mean value. Using purified cyclo[[…]] (SEQ ID no. 1) as an example, we have examined in vitro biological activities of this peptide. A phagocytosis assay was performed to compare the activity of cyclo[[…]] (SEQ ID no. 1) to that of tuftsin. The optimum concentration of tuftsin in this assay is 5 μg/ml. However, the optimum concentration for cyclo[[…]]
# [2] = test system: THP-1 (human acute monocytic leukemia) cell line; assay: Thymidine incorporation assay (growth stimulation effect); conditions: THP-1 cells, at 0.001 and 10 μg/ml; FIG. 2
# Protocol: Thymidine Incorporation Assay
# THP-1 (a human acute monocytic leukemia line) cells were subcultured in RPMI-1640 medium with 10% FBS. Next day THP-1 cells were collected, washed with RPMI-1640 medium with 2% FBS, and plated into well with peptide (1×10^6 cell in 1 ml). The plate was incubated for 18 hours. ^3 H-thymidine (0.1 μCi per well) was then introduced. The plate was incubated for another hour. The cells were collected into a tube using 1 ml of cold HBSS. After washing the cells twice, the cells were mixed with 0.2 ml of 0.1% sodium dodecyl sulfate, and transferred to a liquid scintillation vial for determination of radioactivity. The mean values from triplicates were used to calculate percent increase over control mean value.
# To examine the growth stimulating effect of peptides, a thymidine incorporation experiment was performed using THP-1 (human acute monocytic leukemia) cell line.
smiles,measurement,setting,value
C[C@@H](O)[C@@H]1NC(=O)CNC(=O)[C@H](CCCNC(=N)N)NC(=O)[C@@H]2CCCN2C(=O)[C@H](CCCCN)NC1=O [cyclo[Thr-Lys-Pro-Arg-Gly]] (cyclo(GTKPR)),enhancement of NK tumor cell cytotoxicity compared with tuftsin,human NK cells,significantly greater cytotoxicity
same,extent of phagocytosis compared with tuftsin at 5 μg/ml,[1]; 0.1 μg/ml of cyclic peptide vs 5 μg/ml of tuftsin,no significant difference
same,potency in phagocytosis assay compared with tuftsin,"[1]; at lower concentrations of 0.01 and 0.1 μg/ml, Student t-test, FIG. 1",significantly superior potency over tuftsin
same,optimum concentration in phagocytosis assay,"[1]; human PMNs, 15 min incubation, particle to PMN ratio 50:1, FIG. 1",0.1 µg/mL
same,"optimum concentration, fold lower than tuftsin","[1]; phagocytosis assay, human PMNs",50 fold
same,growth stimulating activity (3H-thymidine incorporation) compared with tuftsin,[2],significantly greater activities than tuftsin
